Series [1] concerns the target T1, HIV-1 integrase (Human immunodeficiency virus type 1 group M subtype B, UniProt P12497, C1427S/F1332H). In words: HIV-1 integrase disintegration assay. Format: biochemical. The conditions noted are these: read-out: EC50s of inhibition of disintegration product formation.
For series [2], the target named is T1, HIV-1 integrase. As to the kind of experiment: HIV-1 integrase strand-transfer (integration) assay. It counts as biochemical. Conditions: U3-GT into pUC18, read-out: Inhibitory Activity EC50 HIV-1 Integrase ST.
The target in series [3] is T2, HIV-1 gp41 fusion core 6HB (N36 + C34) (Human immunodeficiency virus type 1 group M subtype B, UniProt P04578). As to the kind of experiment: Fusion core 6HB formation by native PAGE. The conditions noted are these: Inhibitory Activity EC50 Fusion Core Formation 6HB (N36 + C34) N-PAGE, N36 pre-incubated with compound.
T2 sequence (P04578 546-581): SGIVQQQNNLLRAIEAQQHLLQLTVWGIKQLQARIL
Procedure: (§1) Fusion complex formation was carried out by incubating equimolar amounts of HIV-1 gp41 fusion peptides N36 and C34 in PBS (Phosphate Buffer Saline, containing 50 mM sodium phosphate, pH 7.2 and 150 mM NaCl) at 10 or 20 μM each at 37° C. […] Next, an equimolar amount of C34 was added and the samples incubated for 30 min.
N-PAGE was carried out as previously reported [13] with modifications that involve fusion peptide concentration, order of reactions, and time of incubation in fusion complex formation. Tris-glycine gels (18%, Invitrogen, Carlsbad, Calif.) were electrophoresed at 120 V for 2 h, stained with Coomassie Blue and analyzed by densitometry.
Series [4] addresses T1, HIV-1 integrase. In words: HIV-1 integrase 3′-processing assay. Format: biochemical. Conditions: 21-mer U3 substrate, read-out: Inhibitory Activity EC50 HIV-1 Integrase 3′-Proc.
Series [5] has as its system HIV-1. In words: HIV-1 core protein p24 production. Format: cell-based, HIV-1IIIB. The conditions noted are these: Human immunodeficiency virus 1, 50% inhibition, read-out: Anti-HIV Activity EC50 P24.
The target of series [6] is T2, HIV-1 gp41 fusion core 6HB (N36 + C34). As to the kind of experiment: Fusion core 6HB formation by circular dichroism spectroscopy.
Procedure: as §1
CD spectra were recorded on an AVIV 62-DS CD spectrometer, using 1 mm sample cells and a fixed temperature of 4° C. […] Each spectrum is a smoothed average of 10 scans. The bandwidth for each measurement was 1 nm. […] Prior to calculation of the final ellipticity, all spectra were corrected by subtracting the reference spectra of PBS without peptides.
Details of series [7]: species or system C57BL/6 wild-type mice. Conditions: mouse, in vivo, po. On the procedure: To verify that we can administer oleuropein chronically to mice, we added purified oleuropein to drinking water at concentrations of 5 μg/ml, 50 μg/ml, 500 μg/ml, and 5 mg/ml. The water intake of mice averages 5 ml per mouse per day, these dosages of oleuropein result in daily doses of 0.025 mg, 0.25 mg, 2.5 mg, and 25 mg per mouse per day (equivalent to 1, 10, 100, and 1000 mg/kg body weight). 5 male and 5 female C57BL/6 wild-type mice were used for each dose of oleuropein, and housed them in metabolic cages that allow precise determination of water intake and quantitative urine collection.
After seven days to 4 months of chronic steady-state administration, mice blood and urine were collected. 100 μl of serum or urine were extracted with 1 ml ethyl acetate, evaporated to dryness, and reconstituted with 25 μl water and 5 μl was injected for LC-MS analysis.
LC-MS quantitation was performed using an HP1100 equipped with diode array detector and ESI-mass spectrometer. LC was done using a C18 column (4×20 mm), with a 4 minute elution using a gradient of 5-95% CH3CN—H2O containing 1% acetic acid. The diode array recordings were made at 280 nm and 230 nm, and the ESI mass spectrum was made in negative detection mode. Purified oleuropein, and hydroxytyrosol (synthesized by us) were used as standards. The injection volumes were 5 μl. […]

A short description of series [8]: in vitro. Conditions: human.
Procedure: Uninfected MT2 and H9 cell lines, and HIV-1IIIB chronically infected H9 (H9/HIV-1IIIB) and HIV-1/IIIB virus, were obtained through the AIDS Research and Reference Reagent Program, NIAID, NIH. […] The cell lines were cultured in RPMI medium 1640 containing 100 U/ml penicillin, 100 μg/ml streptomycin, 2 mM L-glutamine, and 10% heat-inactivated fetal calf serum. Viral stocks were prepared and standardized as described [8].
Cytotoxicity was evaluated by the MTT assay [8].
Series [9] has as its system apoE ko mice. In words: Diet-induced atherosclerosis in Western diet-fed apoE ko mouse. Format: in vivo. The conditions noted are these: 0.25 mg/ml in drinking water (daily dose 1.25 mg), 4 months. On the procedure: To test whether oleuropein reduces diet-induced atherosclerosis, oleuropein was administered to apoE ko mice at various doses from 0.25 mg/ml, 2.5 mg/ml, and 25 mg/ml in the drinking water followed by feeding them with a Western diet containing 42% of calories from fat (Harlan-Teklad). […] The mice were sacrificed, blood and tissues collected. Aortas were dissected from the aortic valve to the iliac bifurcation, opened longitudinally, and pinned to a black wax surface. Atherosclerotic lesions were stained with Oil Red O. The total area of the aorta and the atherosclerotic lesion areas were determined by planimetry using Image Pro software.

For series [10], the system named is HIV-1 primary isolates, M and T tropic strains from different clades. As to the kind of experiment: Activity against a panel of HIV-1 primary isolates. It counts as cell-based.
Series [11] has as its system HIV-1. It counts as cell-based, HIV-1IIIB.
Setting [12] is: Human immunodeficiency virus 1, syncytial formation, 50% inhibition, read-out: Anti-HIV Activity EC50 Syncytium.

Data on two compounds can be found in patent US20090061031A1, “Compositions and methods for treating obesity, obesity related disorders and for inhibiting the infectivity of human immunodeficiency virus” (priority 2006, published 2009).

Several values for one entry are separate records, joined by “and”; a condition that tells them apart may be missing. Identical values can stand only once. Like-named read-outs stand apart in the source and are kept apart here.

As a reminder, the IC50 is the concentration needed to halve the response being measured. For the compound `C/C=C1/[C@H](O[C@@H]2O[C@H](CO)[C@@H](O)[C@H](O)[C@H]2O)OC=C(C(=O)OC)[C@H]1CC(=O)OCCc1ccc(O)c(O)c1` (single isomer, unassigned) [Ole, oleuropein], the EC50 in series [1] is 28 nM; in series [2] it was 56 nM; in series [3], ~66 nM and 66 nM; in [4], 46 nM; in [5], 73 nM; in series [6], 62 nM. For the same compound, the EC50 was found to be 55 nM in [11] (Human immunodeficiency virus 1, read-out: average EC50 for syncytial formation) and 55 ± 5 nM in series [11] (setting [12]). The tolerability in animals result in series [7] is reported as “well tolerated”. In addition, in [8], the IC50 was greater than 10000 nM. In series [9], the “serum levels of oleuropein” value is “comparable to those in animals fed a diet supplemented with olive oil”. Also, in series [10], the “activity against HIV-1 primary isolates” value is “active”.
For the compound `OCCc1ccc(O)c(O)c1` [HT, hydroxytyrosol], the EC50 in series [1] is 18 nM; in series [2], 43 nM; in series [3] it was ~58 nM and 58 nM; in [4], 54 nM; in series [5], 68 nM; in [6] it was 60 nM. The EC50 in series [11] (setting [12]) was 61 nM. For the same compound, the IC50 in [8] was greater than 10000 nM. In addition, in [10], the “activity against HIV-1 primary isolates” value is recorded as “active”.
